# Measurements from patent publication US6855728B2, “Small-molecule modulators of hepatocyte growth factor / scatter factor activities” (North Shore-Long Island Jewish Health System, priority 2001, dated 2005).
# What was measured:
# [1] = test system: Endothelial cells (HUVECs); test: Endothelial cell (HUVEC) proliferation assay, 3H thymidine incorporation, compound without added growth factor; type: cell-based, human
# In short: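 HUVECs grown 24 h in EGM-2, starved 1-2 h in RPMI-1% BSA, then exposed 24 h at 37 degrees C to compounds at 1 to 12 microgram/ml without added growth factors. Proliferation read as 3H thymidine incorporation over 4 to 5 h; human iliac artery endothelial cells also used similarly.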
# [2] = test system: HGF/SF induced proliferation of HUVEC; test: Endothelial cell (HUVEC) proliferation assay in the presence of exogenously-added HGF/SF; type: cell-based, human
# In short: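 Serum-starved HUVECs were treated 24 h at 37°C with compounds at final 1 to 12 microgram/ml in RPMI-1% BSA. Proliferation was read as ³H-thymidine incorporation over 4 to 5 h, counted after NaOH lysis.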
# [3] = test system: growth of blood vessels from subcutaneous tissue into Matrigel; test: In vivo blood vessel ingrowth assay (Matrigel); conditions: mice, Matrigel mixed with compound injected subcutaneously, 10 days
# Description: Angiogenesis was assayed as growth of blood vessels from subcutaneous tissue into a solid gel of basement membrane containing the test compound. Matrigel in liquid form (0.5 ml) was mixed with a compound of the invention, or basic fibroblast growth factor as a control, and injected into the abdominal subcutaneous tissue of mice as previously described (Kibbey, M. C., Grant, D. S. Auerbach, R. and Kleinman, H. K. [1992] Role of the SIKVAV site of laminin in promotion of angiogenesis and tumor growth: an in vivo Matrigel model. J. Natl. Can. Inst. 84, 1633-38). After 10 days, mice were sacrificed and the Matrigel plugs were removed, fixed, sectioned, stained and examined for ingrowth of blood vessels.
# [4] = test system: DU145 cells; test: Clonogenic assay; type: cell-based; conditions: clonogenic assay over 7 days
# Description: The effect of (4-(2-chloro-6-fluorobenzyl)-3,5-dimethyl-1H-pyrazole-1-yl)(3-(2,6-dichlorophenyl)-5-methylisoxazol-4-yl)methanone (FIG. 7) and 1-(4-chloro-3-methylphenyl)-3-(2,6-dichlorophenyl)-prop-2-en-1-one were evaluated in a clonogenic assay over 7 days.
# [5] = test system: VEGF-mediated increase in endothelial cell proliferation; test: Endothelial cell proliferation assay in the presence of VEGF; type: cell-based; conditions: 1.5 micromolar
# Description: (§1) Cell proliferation assays Endothelial cells (HUVECs) were seeded in 48 well plates at a density of 10,000 to 20,000 cells per well in the normal growth medium (EGM-2-Clonetics) containing 2% fetal bovine serum, FGF, VEGF, IGF, ascorbic acid, EGF, GA, heparin and hydrocortisone. The cells were grown normally in the growth medium for 24 hr at 37 degrees C. and 5% CO2. The cells were then rinsed with RPMI-1% BSA and starved for 1-2 hrs. The stock solutions of all the compounds were made at a concentration of 10 mg/ml in DMSO and diluted in RPMI-1% BSA at a final concentrations of 1 to 12 microgram/ml. The cells were then washed and treated with the compounds and incubated for another 24 hr at 37 degrees C. Then ^3H thymidine (0.5 microgram/ml in RPMI-BSA) was added to the cells and incubated at 37 degrees C. for 4 to 5 hours. The unincorporated thymidine was removed by washing the cells four times with 1× PBS. Then the cells were lysed with 0.5M NaOH for 30 min and the radioactivity counted in the beta counter.
# (§2) In endothelial cell proliferation assays as described above, the effect of the compound 1-(4-chloro-3-methylphenyl)-3-(2,6-dichlorophenyl)-prop-2-en-1-one was evaluated in the presence of HGF/SF, VEGF or FGF for its effects on antagonizing the growth factor-induced stimulation of endothelial cell proliferation.
# [6] = test system: FGF-mediated increase in endothelial cell proliferation; test: Endothelial cell proliferation assay in the presence of FGF; type: cell-based; conditions: 1.5 micromolar
# Description: as §1, §2
# [7] = test system: MDCK cells exposed to adriamycin; test: Anti-apoptotic activity assay (MTT viability, adriamycin-induced apoptosis); type: cell-based; conditions: for protection from adriamycin-induced apoptosis: MDCK cells; for cell viability, substance alone: without adriamycin
# [8] = test system: human endometrial cancer cells; test: Effect on growth of tumor cells; type: cell-based; conditions: 40 micrograms/ml
# Description: Effect on growth of tumor cells. The activity of the compounds herein to promote or inhibit the growth of tumor cells was evaluated using human endometrial cancer cells.
# [9] = test system: VEGF-like activity; test: Screen for VEGF-like activity in a standard assay; type: cell-based; conditions: for VEGF-like activity: 2 microgram/ml compound
# Description: Compounds were screened for VEGF-like activity in a standard assay using 2 microgram/ml compound.
# [10] = target: c-Met receptor (Homo sapiens, UniProt P08581); test: HUVEC proliferation assay with free c-Met receptor (specificity); type: cell-based
# c-Met receptor, sequence (P08581 25-1390): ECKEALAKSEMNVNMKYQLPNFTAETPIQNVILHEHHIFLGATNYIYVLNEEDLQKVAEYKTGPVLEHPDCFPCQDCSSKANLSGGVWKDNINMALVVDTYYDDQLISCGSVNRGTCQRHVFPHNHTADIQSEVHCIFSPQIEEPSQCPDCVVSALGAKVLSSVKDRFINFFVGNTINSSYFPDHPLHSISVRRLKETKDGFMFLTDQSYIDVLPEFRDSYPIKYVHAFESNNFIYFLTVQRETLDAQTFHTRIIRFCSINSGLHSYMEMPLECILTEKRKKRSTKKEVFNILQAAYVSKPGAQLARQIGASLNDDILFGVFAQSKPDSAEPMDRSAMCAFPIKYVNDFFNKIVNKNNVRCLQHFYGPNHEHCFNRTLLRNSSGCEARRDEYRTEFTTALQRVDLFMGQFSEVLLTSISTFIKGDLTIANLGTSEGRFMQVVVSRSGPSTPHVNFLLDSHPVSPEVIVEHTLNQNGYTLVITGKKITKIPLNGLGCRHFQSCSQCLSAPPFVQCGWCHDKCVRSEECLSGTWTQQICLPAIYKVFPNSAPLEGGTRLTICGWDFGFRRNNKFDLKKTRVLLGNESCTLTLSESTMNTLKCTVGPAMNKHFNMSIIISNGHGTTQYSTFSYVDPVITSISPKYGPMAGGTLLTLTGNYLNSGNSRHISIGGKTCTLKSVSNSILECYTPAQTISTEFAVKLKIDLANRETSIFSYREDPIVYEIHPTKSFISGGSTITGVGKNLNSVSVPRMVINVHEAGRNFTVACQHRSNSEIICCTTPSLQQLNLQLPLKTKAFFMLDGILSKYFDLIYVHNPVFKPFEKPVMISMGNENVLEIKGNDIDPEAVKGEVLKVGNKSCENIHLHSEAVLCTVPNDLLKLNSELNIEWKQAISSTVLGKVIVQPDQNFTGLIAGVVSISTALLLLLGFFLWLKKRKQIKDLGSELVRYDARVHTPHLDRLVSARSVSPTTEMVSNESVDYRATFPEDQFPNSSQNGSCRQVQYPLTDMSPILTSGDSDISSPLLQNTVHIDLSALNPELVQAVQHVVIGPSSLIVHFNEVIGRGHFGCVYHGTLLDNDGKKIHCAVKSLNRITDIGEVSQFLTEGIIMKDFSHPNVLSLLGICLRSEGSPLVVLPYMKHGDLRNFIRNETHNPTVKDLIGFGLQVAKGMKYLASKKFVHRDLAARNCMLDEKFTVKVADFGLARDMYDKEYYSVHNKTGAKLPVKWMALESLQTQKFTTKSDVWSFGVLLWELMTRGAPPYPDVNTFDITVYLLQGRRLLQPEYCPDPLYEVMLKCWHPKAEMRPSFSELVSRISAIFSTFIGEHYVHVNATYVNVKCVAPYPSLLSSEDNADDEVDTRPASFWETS
# Description: The following assays were used to evaluate the activity of the various compounds discussed herein. Certain of the compounds and groups thereof express-like activity, i.e., they induce scatter, cell proliferation, inhibit apoptosis, among other activities, and if acting through the c-Met receptor, agonize or stimulate c-Met receptor activity. The specificity for such compounds working through the c-Met receptor may be identified by performing the stimulation assay in the presence of free c-Met receptor. Reduction of a proliferative response in the presence of c-Met indicates such specificity.
# Cell proliferation assays Endothelial cells (HUVECs) were seeded in 48 well plates at a density of 10,000 to 20,000 cells per well in the normal growth medium (EGM-2-Clonetics) containing 2% fetal bovine serum, FGF, VEGF, IGF, ascorbic acid, EGF, GA, heparin and hydrocortisone. The cells were grown normally in the growth medium for 24 hr at 37 degrees C. and 5% CO2. The cells were then rinsed with RPMI-1% BSA and starved for 1-2 hrs. […] Then the cells were lysed with 0.5M NaOH for 30 min and the radioactivity counted in the beta counter.
# The specificity of the stimulation of endothelial cell growth by the compound as measured by ^3H-thymidine incorporation was tested by pre-incubation of cells with the HGF/SF receptor c-met. […]
# [11] = test system: MDCK cells; test: Scatter assay; type: cell-based; conditions: 6 microgram/ml; microscopic examination
# Description: Scatter Assay. A standard assay for scatter of MDCK cells was performed. Results were evaluated by microscopic examination.
# [12] = test system: another cell line; test: Anti-apoptotic activity assay in another cell line; type: cell-based
# Description: Anti-apoptotic Activity Assay. The ability of compounds of the present invention to protect cells-from apoptosis was performed using a MTT viability assay with MDCK cells exposed to adriamycin (15 micromolar) to induce apoptosis. HGF/SF was evaluated as a positive control.
# In another cell line, 90% protection was afforded by (4-chlorophenyl)[3-(2-(2-thienyl)vinyl)-1H-pyrazol-1-yl]methanone.
# [13] = test system: mice following removal of the femoral artery; test: In vivo blood flow improvement assay; conditions: administered to mice for seven days following removal of the femoral artery
molecule,measurement,setting,value
"Cc1cc(C(=O)C=Cc2c(Cl)cccc2Cl)ccc1Cl [1-(4-chloro-3-methylphenyl)-3-(2,6-dichlorophenyl)-prop-2-en-1-one]",Activity at 1 ug/ml concentration Without HGF/SF (result in words),"[1]; 1 ug/ml, without HGF/SF",No effect at 1 ug/ml
same,effect on HGF/SF-mediated increase in endothelial cell proliferation,[2]; 1.5 micromolar,suppressed
same,Inhibition at 6-12 micrograms/ml With,"[2]; 6-12 micrograms/ml, with HGF/SF, inhibition of endothelial cell proliferation",40-80% inhibition
same,ingrowth of blood vessels into Matrigel plug,[3],nearly complete inhibition of blood vessel ingrowth
same,DU145 cell growth,[4],dose responsive inhibition
same,effect on VEGF-mediated increase in endothelial cell proliferation,[5],suppressed
same,effect on FGF-mediated increase in endothelial cell proliferation,[6],suppressed
"HGF/SF: hepatocyte growth factor/scatter factor, pleiotropic growth factor; evaluated as a positive control","effect on HUVEC proliferation, substance alone (FIG. 5)",[1],increases the proliferation of HUVEC
same,protection from adriamycin-induced apoptosis,[7],94%
same,"cell viability, substance alone",[7],unchanged
"Cc1nn(C(=O)c2c(-c3c(Cl)cccc3Cl)noc2C)c(C)c1Cc1c(F)cccc1Cl [(4-(2-chloro-6-fluorobenzyl)-3,5-dimethyl-1H-pyrazole-1-yl)(3-(2,6-dichlorophenyl)-5-methylisoxazol-4-yl)methanone]",Activity at 2 microgram/ml Without HGF/SF (result in words),"[1]; 2 microgram/ml, without HGF/SF",No effect
same,inhibition at 2 µg/mL,"[2]; Homo sapiens, 2 microgram/ml, with HGF/SF, inhibition of HUVEC proliferation, read-out: Activity at 2 microgram/ml With HGF/SF: inhibition (blocked SF)",40 to 90%
same,inhibition at 6 µg/mL,"[2]; Homo sapiens, 6 microgram/ml, with HGF/SF, inhibition of HUVEC proliferation, read-out: Activity at 6 microgram/ml With HGF/SF: inhibition (blocked SF)",50 to 100%
same,ingrowth of blood vessels into Matrigel plug,[3],significant stimulation of blood vessel ingrowth
same,DU145 cell growth,[4],dose responsive inhibition
"Cc1nn(C(=O)c2c(-c3c(Cl)cccc3Cl)noc2C)c(C)c1Cc1c(Cl)cccc1Cl [[4-(2,6-dichlorobenzyl)-3,5-dimethyl-1H-pyrazol-1-yl][3-(2,6-dichlorophenyl)-5-methylisoxazol-4-yl]methanone]","effect on HUVEC proliferation, substance alone (FIG. 5)",[1],no effect
same,blockage of HGF/SF induced proliferation of HUVEC,[2]; 12 micrograms/ml,40-60%
same,effect on HGF/SF-mediated stimulation of HUVEC proliferation (FIG. 5),[2]; combination of HGF/SF and the compound,significant suppression
same,inhibition at 40 µg/mL,[8],40 to 50%
"CN(C)c1nc(-c2ccccc2)nc(-c2ccc(Cl)cc2)c1C#N [VC14, 4-(4-chlorophenyl)-6-(dimethylamino)-2-phenyl-5-pyrimidinecarbonitrile]",VEGF-like activity,[9],positive activity
"COc1cccc2c1C(=O)c1c(O)c3c(c(O)c1C2=O)C[C@@](O)(C(=O)CO)C[C@@H]3O[C@H]1C[C@H](N)[C@H](O)[C@H](C)O1 [Adriamycin, reference compound]",cell viability,[7]; Adriamycin (15 µM),56 % of control
"O=C1c2ccccc2N(c2ccccc2)C(=O)C1(Br)Br [VC8, 3,3-dibromo-1-phenyl-1,2,3,4-tetrahydroquinoline-2,4-dione]",VEGF-like activity,[9],positive activity
VEGF,activity of VEGF in the VEGF-like activity assay,[9],1259±104 cpm
O=C(c1ccc(Cl)cc1)n1ccc(C=Cc2cccs2)n1 [(4-chlorophenyl)[3-(2-(2-thienyl)vinyl)-1H-pyrazol-1-yl]methanone],stimulation of 3H-thymidine incorporation,"[1]; compound by itself, 6 microgram/ml",84%
same,inhibition of the compound's stimulation of 3H-thymidine incorporation in the presence of c-Met,[10]; compound 6 microgram/ml plus c-Met receptor 100 microgram/ml,75%
same,compound-induced EC proliferation blocked in the presence of C-met receptor,"[10]; compound 12 microgram/ml incubated with C-met receptor 5 microgram/ml for 30 min, then added to cells",40%
same,scatter of MDCK cells,[11],caused scattering of MDCK cells similar to that seen with HGF/SF
same,protection from adriamycin-induced apoptosis,[7],94%
same,"cell viability, substance alone",[7],unchanged
same,protection from adriamycin-induced apoptosis,[12],90%
same,blood flow,[13],significant improvement in blood flow
c1ccc(-c2sc(-c3ccccc3)c(-c3ccccc3)c2-c2ccccc2)cc1 [tetraphenylthiophene],Inhibition at 6-12 micrograms/ml Without HGF/SF,"[1]; 6-12 micrograms/ml, without HGF/SF, inhibition of endothelial cell proliferation",50% inhibition
same,Stimulation/Inhibition at 6-12 micrograms/ml With (result in words),"[2]; 6-12 micrograms/ml, with HGF/SF",No effect
